Two compounds from EP3558896B1, “USE OF ARYL S[…] TRIAMIDE UREASE INHIBITORS WITH PHOSPHORUS-[…] FERTILIZERS” (BASF SE, priority 2016, dated 2018) can be followed below.

This data set is described as follows: Decomposition of urease inhibitors on treated urea granules mixed with triple super phosphate (TSP) granules. Format: physicochemical. To be noted: after one day in the absence of TSP granules.

For `CCCNP(N)(N)=S` [NPPT, N-n-propylthiophosphoric acid triamide], the “decomposition of the urease inhibitors” value was “no decomposition”.
With `CCCCNP(N)(N)=S` [NBPT, N-n-butylthiophosphoric acid triamide] the entry was “no decomposition”.
